Source: patent publication US8470859B2, “Iminopyridine derivative and use thereof” (Takeda Pharmaceutical Company Limited, priority 2006, dated 2013)

Key:
[1] = tested on: isolated bladder muscle of BOO model rat; assay: Effect of SNAP-8719 on α1 receptor stimulation-induced contraction of isolated bladder muscle of bladder outlet obstruction (BOO) model rat; details: phenylephrine 3 μmol/L, average value ± standard error, N=5-8
Protocol: Effect of SNAP-8719 on α1 Receptor Stimulation-Induced Contraction of Isolated Bladder Muscle of Bladder Outlet Obstruction (BOO) Model Rat
(§1) • (i) Seven-week-old male Wistar rats (CLEA Japan, Inc., Tokyo) were used. BOO rat was prepared according to publications (Hashimoto T, Nagabukuro H and Doi T: Effects of the selective acetylcholinesterase inhibitor TAK-802 on the voiding behavior and bladder mass increase in rats with partial bladder outlet obstruction. J Urol. 174: 1137-41., 2005.). After pentobarbital (50 mg/kg i.p., Dainippon Sumitomo Pharma Co., Ltd., Osaka) anesthesia, a lower middle abdominal incision was made to expose the bladder. The prostate was detached, the urethra was ligated along with a glass rod having an outer diameter of 1.2 mm, and the glass rod was removed to prepare partial obstruction of the urethra. After the surgery, the abdomen was sutured, and penicillin (2000 IU/rat, penicillin G potassium, MEIJI SEIKA KAISHA, LTD., Tokyo) was subcutaneously administered. An animal after 2 to 4 weeks from obstruction surgery was used. • (ii) Contractile Responses of Isolated Bladder Muscle (1) Preparation of Bladder Muscle Specimen
BOO model rat was sacrificed by decaptation, and the bladder was isolated. Muscle strips (length 7-10 mm in the longitudinal direction, width about 3 mm) were prepared from the bladder except bladder trigone (4-6 specimen from each bladder).
(§2) The prepared bladder muscle specimens were hung in a Magnus bath aerated with 95% O2-5% CO2 gas and filled with modified Krebs solution. The contraction tension was measured by an isometric strain transducer (TSD125C, Biopac systems, Santa Barbara, Calif., USA) and recorded in the hard disc of PC (ThinkCentre, IBM, USA) via an amplifier (DA100C, Biopac systems) and a multichannel data analysis apparatus (MP100A-CE, Biopac systems). For uptaking the data, a dedicated software (Acqknowledge 3.8.1., Biopac systems) was used and the sampling interval was set to 0.2 second (5 Hz). The specimens were hung with a load of about 1 g and, after an equilibration time of 1 hr or longer, the following experiment was performed.
The specimens were treated with phenylephrine (3 μmol/L) to induce contraction.
The standard deviation was measured for 5 minutes immediately before phenylephrine treatment and for 5 minutes after the contraction was stabilized after treatment (immediately before completion of the about 20 min observation time) and the difference was taken as 100%. The standard deviation was measured for 5 minutes immediately before completion of observation time (30 min) after the SNAP-8719 treatment, and the inhibition rate was calculated. In the vehicle treatment group, the variation rate of phenylephrine-induced contraction was calculated every time the specimens were repeatedly treated with the vehicle, and the inhibition rate of SNAP-8719 was adjusted based on the variation rate of the corresponding vehicle treatment group. • (iii) Action of SNAP-8719 on α1 Receptor Stimulation-Induced Contraction of Isolated Bladder Muscle of BOO Model Rat
After the phenylephrine-induced contraction was stabilized, the specimens were treated with the vehicle 0-4 times at 30 min intervals, treated with SNAP-8719 (1 μmol/L), and the variation in the contraction tension in 30 min was observed. […] Therefore, the evaluation by cumulative treatment with a drug was performed for up to 3 concentrations at 30 min intervals.

[2] = tested on: isolated bladder muscle of BOO model rat; assay: Effect of various drugs on α1 receptor stimulation-induced contraction of isolated bladder muscle of bladder outlet obstruction (BOO) model rat; details: phenylephrine 3 μmol/L
Protocol: Effect of Various Drugs on α1 Receptor Stimulation-Induced Contraction of Isolated Bladder Muscle of Bladder Outlet Obstruction (BOO) Model Rat
as §1
BOO model rat was sacrificed by decaptation, and the bladder was isolated. Muscle strips (length 7-10 mm, width about 3 mm) in the longitudinal direction were prepared from the bladder except bladder trigone (4-6 specimen from each bladder).
as §2
The specimens were treated with phenylephrine (3 μmol/L) to induce contraction. After the contractile response was stabilized (>20 min), the specimens were cumulatively treated 3 times with a drug at a 10-fold common ratio and 30 min intervals, and the variation in the tension was observed.
The variation in the tension due to α1 receptor stimulation was evaluated by the two methods shown below [average method and standard deviation (Stddev) method].
The average tension for one minute was measured immediately before phenylephrine treatment and after the contraction was stabilized after the treatment (immediately before completion of about 20 min observation time), and the difference was taken as 100%. The average tension for one minute was measured immediately before completion of observation time (30 min) after treatment with a drug at each concentration, and the inhibition rate of the drug at each concentration was calculated. In the vehicle treatment group, the variation rate of phenylephrine-induced contraction was calculated every time the specimens were treated 3 times with lo the solvent, and the inhibition rate of the drug at each concentration was adjusted based on the variation rate of the corresponding vehicle treatment group. The concentration (IC50) necessary for inhibiting the average tension by 50% by preclinical package (SAS Institute Japan, Ver. 5.0) was calculated based on the inhibition rate at each concentration.
The standard deviation was measured immediately before phenylephrine treatment and for 5 min after the contraction was stabilized after treatment (immediately before completion of the about 20 min observation time) and the difference was taken as 100%. […]

Structure (SMILES): C[C@H](CN1CCN(c2cc(F)c(F)cc2F)CC1)N1C(=O)CC2(CCCC2)CC1=O [SNAP-8719]
- inhibition rate of phenylephrine-induced contraction (standard deviation method, vehicle adjusted value) ([1]; SNAP-8719 1 μmol/L after treatment with vehicle 0 times): 51.2±12.4%
- inhibition rate of phenylephrine-induced contraction (standard deviation method, vehicle adjusted value) ([1]; SNAP-8719 1 μmol/L after treatment with vehicle 1 time at 30 min intervals): 47.4±9.1%
- inhibition rate of phenylephrine-induced contraction (standard deviation method, vehicle adjusted value) ([1]; SNAP-8719 1 μmol/L after treatment with vehicle 2 times at 30 min intervals): 66.6±8.7%
- inhibition rate of phenylephrine-induced contraction (standard deviation method, vehicle adjusted value) ([1]; SNAP-8719 1 μmol/L after treatment with vehicle 3 times at 30 min intervals): 36.3±9.4%
- inhibition rate of phenylephrine-induced contraction (standard deviation method, vehicle adjusted value) ([1]; SNAP-8719 1 μmol/L after treatment with vehicle 4 times at 30 min intervals): 8.7±32.3%
- effect on the rhythmic contractile response induced by phenylephrine (average method and Stddev method), in words [2]: inhibited
- IC50 ([2]; concentration inhibiting the average tension by 50%, cumulative treatment, 3 concentrations, 30 min intervals, read-out: Inhibitory effect on phenylephrine-induced contraction IC50 (average method)): 360 nM
- Inhibitory effect on phenylephrine-induced contraction IC30 (stddev method) ([2]; concentration inhibiting the sustained, rhythmic contractile responses by 30%, cumulative treatment, 3 concentrations, 30 min intervals): 180 nM
